Measurements published in patent EP0727211A1, “Use of src SH2 specific compounds to treat a bone resorption disease” (SMITHKLINE BEECHAM CORPORATION, priority 1995, dated 1996).
Read-outs that look alike come from different tables or passages of the source.

What was measured:
[1] = molecular target: human src SH2 domain (Homo sapiens, UniProt P12931); test: SH2 domain / pY peptide binding assay (ELISA-based, 96 well plate), src SH2
Protocol: (§1) The inhibitory activity of compounds at the different human SH2 domains was determined in vitro using SH2 domains expressed as fusion proteins in E. coli. The SH2 domains used herein were the human forms of the src SH2 domain, Grb2 SH2 domain, lck SH2 domain, fyn SH2 domain, SH-PTP2 SH2 domain, p85 SH2 domain and hcp SH2 domain. The fusion proteins containing the src, lck and hcp SH2 domains were expressed as the general sequence: DET1-DET2-spacer-ek-SH2, where DETI, DET2, spacer, ek and SH2 are as described below. […] Monoclonal antibodies to various epitopes of HIV-1 gp120 (or gp160) are known in the art, see, for example U.S. Patent 5,166,050. One preferred example is monoclonal antibody 178.1 (see, […] et al., J. Immunol., 143:1832-1836 (1989)), which was prepared by immunization of mice with a yeast-expressed HIV-1 gp160 molecule from strain BH10 (Ratner et al., Nature, 313:277-284 (1985)). This tag was used for detection of expression (by Western blot), for purification of the protein (by affinity chromatography), and for configuring assays in which the fusion protein was captured or immobilized using the 178.1 antibody. DET2 is a hexahistidine sequence tag (SEQ ID NO: 2) which binds to nickel-containing resins and was used for purification purposes. Spacer (SEQ ID NO: 3) was utilized to design a BamH1 restriction site at the indicated position of the construct. The term -[…] to a recognition sequence (SEQ ID NO: 4) for the enterokinase protease which provides for the optional removal of the tags from the SH2 domain, thus producing an SH2 domain that contains no extraneous amino acids. SH2 domains which contain no extraneous amino acids are preferable to tagged protein for crystallography studies. SH2 refers to the SH2 domains of different proteins. Cloning, expression and purification of human src SH2 domain containing tags and an enterokinase proteolytic cleavage site (DET1-DET2-spacer-ek-src SH2). A DNA sequence encoding protein ek-src SH2 was PCR amplified from a cDNA clone containing the human src gene (c-src SH2 DNA sequence identical to that described in […]. and Hanafusa, H, 1983 Cell 32:881-890) using the following primers: [formula] The PCR product was digested with BamHI and XbaI, followed by isolation of the digested fragment on an agarose gel. […] In that vector, the BamHI site is located between the coding regions for DET2 and SH2, and the XbaI site is located after the 3' end of the SH2 coding region. The ligation reaction was used to transform E. coli M[…]^+. […] Cells were lysed at neutral pH by sonication in the […] of lysozyme. […] After washing the column with equilibration buffer (Tris buffer pH 8 containing 0.5 M NaCl) and the same buffer containing 15 mM imidazole, the protein was eluted in highly purified form with 25 mM imidazole in equilibration buffer. […] The binding assays for the SH2 domains and pY peptides were performed in an ELISA-based 96 well plate assay. In Millipore 96 well filter plates, hydrophilic Durapore® (pore size 0.65um Cat. No. MADVN6550), was added 2 ul (50% suspension) of Protein-G Sepharose (available from Pharmacia of N.J. Cat. […] The volume was brought to 100 ul with TBS-T (tris buffered saline plus 0.05% tween-20), incubated and shaken at room trmperature for 1 hr. then washed 1x with TBS-T (4°C). 90 ul of TBS-T were then added to each well. […] The assay plates were incubated until equilibrium binding was attained (3 hr at 4°C with shaking). […] The A490 of each ELISA plate was then determined. […]

[2] = tested on: osteoclast mediated bone resorption; test: fetal rat long bone (FRLB) assay, 45calcium release; type: cell-based, Sprague Dawley rats; details: inhibition of 45calcium release from fetal rat radii and ulnae, 48 hours culture with compound, n=4
Protocol: 4-[4-(4-Methylbenzoyl)benzoyl]phenylacetaldehyde (Compound 4) was tested for its potency to inhibit osteoclast mediated bone resorption in the fetal rat long bone (FRLB) assay as described in Raisz LG (1965) J Clin Invest 44: 103-116, Stern PH et al., (1979) Skeletal Research: An experimental Approach. New York:Academic Press, 21-59 and Votta BJ et al., (1994) Bone 15:533-538).
To perform the experiment timed-pregnant Sprague Dawley rats (Taconic Farms, Germantown, NY) were injected subcutaneously with 200 µCi of ^45CaCl2 on day 18 of gestation, housed overnight, then anesthetized with Innovar-Vet (Pittman-Moore, Mundelein, IL) and sacrificed by cervical dislocation. Fetuses were removed aseptically and radii and ulnae were dissected free of surrounding soft tissue and cartilaginous ends. The bones were cultured 18-24 hours in BGJb medium (Sigma) containing 1 mg/ml bovine serum albumin, then transferred to fresh medium and cultured for an additional 48 hours in the absence or presence of Compound 4. ^45Calcium released into the medium and total calcium in the bones were measured by liquid scintillation spectrometry. Data were expressed as the % ^45calcium released from treated bones as compared to corresponding control bones. Statistical differences were assessed by employing a one-way analysis of variance for non-paired samples. Data are presented as mean ± s.e.m., n=4. […]

[3] = tested on: human src SH2 domain; test: SH2 domain / pY peptide binding assay (ELISA-based, 96 well plate), src SH2; details: selectivity for src SH2 versus the other SH2 domains of Tables I and II
Protocol: as §1

Sequence of human src SH2 domain (Homo sapiens, UniProt P12931) (P12931 151-248): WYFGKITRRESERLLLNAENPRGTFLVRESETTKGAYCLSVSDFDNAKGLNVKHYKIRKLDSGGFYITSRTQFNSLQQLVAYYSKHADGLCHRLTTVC

N[C@@H](Cc1cc(Br)c(Oc2ccc(O)c(Cc3ccc(O)nn3)c2)c(Br)c1)C(=O)O [Compound 2, L-3,5-Dibromo-3'-(6-oxo-3(1H)-pyridazinylmethyl)-thyronine]
IC50 ([1]; read-out: Src (IC50); cloned human SH2 domain fusion protein; 0.1 uM biotinylated pY peptide; Table I): > 300 µM | Ki ([1]; read-out: Src (Ki); Ki calculated from IC50 by the expanded equation; Table II): > 1000 µM

Cc1ccc(C(=O)c2ccc(C(=O)c3ccc(CC=O)cc3)cc2)cc1 [Compound 4, 4-[4-(4-Methylbenzoyl)benzoyl]phenylacetaldehyde]
IC50 [2]: 19 µM

CCCCCCNC(=O)[C@H]1CC[C@H](CNC(=O)c2ccc([N+](=O)[O-])cc2)CC1 [Compound 7, 4-nitro-benzamido-trans-4-methyl-cyclohexyl-N-hexyl carboxamide]
Ki ([1]; Ki calculated from IC50 by the expanded equation; Table II; read-out: Src (Ki)): 20 µM | IC50 ([1]; cloned human SH2 domain fusion protein; 0.1 uM biotinylated pY peptide; Table I; read-out: Src (IC50)): 7.4 µM | binding affinity/inhibitory concentration at the src SH2 domain than at other SH2 domains [3]: greater than fifty-fold higher
